Measurements from patent US8211463B2, “Use of glycolipids as adjuvants” (Helmholtz-Zentrum Fuer Infektionsforschung GmbH, priority 2006, dated 2012).
“Also recorded” adds a separate entry of the source.

Experiments:
[1] = tested on: β-Gal-specific IgG isotypes; test: IgG isotype ELISA (IgG, IgG1, IgG2a) in sera of vaccinated mice; assay type: in vivo, Balb/c mice; settings: for enhancement of β-Galactosidase-specific IgG secretion vs β-Gal alone / increase of β-Gal-specific IgG1 secretion vs β-Gal alone / increase of β-Gal-specific IgG2a secretion vs β-Gal alone / increase of β-Gal specific IgG1 secretion vs β-Gal alone / secretion of IgG2a isotype vs β-Gal alone: 10 μg glycolipid; for enhancement of β-Galactosidase-specific IgG2a isotype vs β-Gal alone: 20 or 30 μg glycolipid, dose-dependent; for increase of β-Gal specific IgG1 secretion vs β-Gal alone / secretion of IgG2a isotype vs β-Gal alone: s.c. (parenteral)
Method: Co-administration of β-Gal with 10 μg glycolipids 1, 5 and 6 induced β-Gal-specific systemic IgG responses in Balb/c mice. Balb/c mice were immunized by the i.n. or s.c. route with β-Gal alone or together with glycolipids 1, 5 and 6 three times at 2-wk intervals. 10 days after the final immunization, the immunized mice were sacrificed. The levels of β-Gal-specific titers of IgG isotypes were determined in Sera of mice immunized by the i.n. (A) and s.c. (B) route. […] Bars represent mean Ab titer or amount±SE in each group. Each group consists of five mice. Data are representative of three separate experiments.
Co-administration of β-Gal with 20 or 30 μg glycolipids 5 and 6, respectively, induced β-Gal-specific systemic IgG responses in Balb/c mice. Balb/c mice were immunized by the i.n. or s.c. route with β-Gal alone or together with glycolipids 5 and 6 three times at 2-wk intervals. 10 days after the final immunization, the immunized mice were sacrificed. The levels of β-Gal-specific titers of IgG isotypes were determined in Sera of mice immunized by the i.n. (A) and s.c. (B) route. […] The parenteral administration of with β-Gal co-administered with 20 μg glycolipids 5 and 6 enhanced the β-Galactosidase-specific IgG1 isotype titer (>250000) in comparison to animals which were immunized with β-Gal alone. Bars represent mean Ab titer or amount±SE in each group. Each group consists of five mice. Data are representative of two separate experiments.
Isotyp ELISA: 96-well Nunc-Immuno MaxiSorp assay plates (Nunc, Roskilde, Denmark) were coated with 100 μl of β-Gal (Boehringer, Mannheim, Germany) at 5 μg/ml in 0.05 M carbonate buffer (pH 8.2) per well. Serial two-fold dilutions of sera or lavages in PBS with 1% BSA and 0.05% Tween 20 were added (100 μl/well), and plates incubated for 2 h at 37° C. After washing, biotin-conjugated rat anti-mouse IgG1 or IgG2a (Pharmingen, Hamburg, Germany) were added to determine IgG subclasses. Plates were incubated for an additional 1 h at 37° C. After four washes, 100 μl of peroxidase-conjugated streptavidin (Pharmingen) was added to cells and plates incubated at 37° C. for 30 min. After four washes, reactions were developed with ABTS in 0.1 M citrate-phosphate buffer (pH 4.35) containing 0.01% H2O2. To determine the concentration of IgG subclasses in serum, standard curves were obtained by coating the wells with an isotype-specific goat anti-mouse IgG, and then by incubating with purified mouse IgG1 or IgG2a antibodies (Dianova, Hamburg, Germany).

[2] = Tolerability of co-administered glycolipids: body weight and behaviour tested daily; assay type: in vivo
Method: The body weight and the behaviour of the animals were tested daily. The Balb/c mice were immunized by the mucosal (i.n.) or parenteral (s.c.) route with β-Gal alone or together with glycolipids 1, 5 and 6 three times at 2-wk intervals (day 1, 14 and 28). 10 days after the final immunization (day 38), the immunized mice were sacrificed.
Experimental protocol: six-eight weeks-old female BALB/c (H-2d) mice were purchased from Harlan Winkelmann GmbH (Borchen, Germany) and treated in accordance with local and European Community guidelines. Groups of 5 mice each were immunized on day 01, 14 and 28 with 30 μg of β-Gal (Boehringer, Mannheim, Germany), alone or with 10 μg of glycolipids 1, 5, or 6, respectively, see FIG. 2. For intranasal (i.n.) immunization, 10 μl were applied to each naris, whereas for the s.c. injection β-Gal with or without glycolipids 1, 5 or 6, respectively, was resuspended in a volume of 50 μl PBS per animal. Serum samples were collected at day 38 after immunization and stored at −20° C. prior to determination of β-Gal-specific antibodies. 96-well Nunc-Immuno MaxiSorp assay plates (Nunc, Roskilde, Denmark) were coated with 100 μl of β-Gal (Boehringer, Mannheim, Germany) at 5 μg/ml in 0.05 M carbonate buffer (pH 8.2) per well. Serial two-fold dilutions of sera or lavages in PBS with 1% BSA and 0.05% Tween 20 were added (100 μl/well), and plates incubated for 16 h at 37° C. After washing, biotinylated γ-chain-specific goat anti-mouse IgG (Sigma Chemie, Deisenhofen, Germany) was added, and plates were incubated for an additional 1 h at 37° C. After four washes, 100 μl of peroxidase-conjugated streptavidin (Pharmingen) was added to cells and plates incubated at 37° C. for 30 min. After four washes, reactions were developed with ABTS in 0.1 M citrate-phosphate buffer (pH 4.35) containing 0.01% H2O2.

[3] = i.n. co-administration with β-Gal (FIG. 9 and FIG. 10)
[4] = s.c. co-administration with β-Gal (FIG. 9 and FIG. 10)
[5] = co-administered with 30 μg β-Gal, i.n. and s.c., day 1, 14 and 28

## CCCCCCCCCCCCCCOCC(COCCCCCCCCCCCCCC)O[C@@H]1O[C@H](CO)[C@@H](O[C@H]2O[C@H](CO)[C@@H](O)[C@H](O)[C@H]2O)[C@H](O)[C@H]1O [glycolipid 5, 1,3-Di-O-tetradecyl-2-O-[4′-O-(α-D-glucopyranosyl)-β-D-glucopyranosyl]-sn-glycerol]
[1]; [3]
  IgG1 / IgG2a isotype pattern (Th2 / Th1): dominant Th2 pattern
[1]; i.n.
  enhancement of β-Galactosidase-specific IgG secretion vs β-Gal alone: 29 fold
  increase of β-Gal-specific IgG1 secretion vs β-Gal alone: 50 fold
  increase of β-Gal-specific IgG2a secretion vs β-Gal alone: 6 fold
  enhancement of β-Galactosidase-specific IgG2a isotype vs β-Gal alone: 7 fold
[1]
  increase of β-Gal specific IgG1 secretion vs β-Gal alone: 2.2 fold
  secretion of IgG2a isotype vs β-Gal alone: no enhanced secretion
[1]; [4]
  IgG1 / IgG2a isotype pattern (Th2 / Th1): dominant Th2 pattern
[1]; s.c.
  enhancement of β-Galactosidase-specific IgG secretion vs β-Gal alone: 7 fold
[2]; [5]
  toxic side effects (body weight and behaviour): no toxic side effects; also recorded: no toxic side effects or changes in their behaviour

## CCCCCCCCCCCCCCOCC(COCCCCCCCCCCCCCC)O[C@@H]1O[C@H](CO[C@H]2O[C@H](CO)[C@H](O)[C@H](O)[C@H]2O)[C@@H](O)[C@H](O)[C@H]1O [glycolipid 6, 1,3-di-O-tetradecyl-2-O-[6′-O-(α-D-galactopyranosyl)-β-D-glucopyranosyl]-sn-glycerol]
[1]; [3]
  IgG1 / IgG2a isotype pattern (Th2 / Th1): comparable expression of IgG1 and IgG2a isotypes
[1]; i.n.
  enhancement of β-Galactosidase-specific IgG secretion vs β-Gal alone: 8 fold
  increase of β-Gal-specific IgG1 secretion vs β-Gal alone: 24 fold
  increase of β-Gal-specific IgG2a secretion vs β-Gal alone: 1.8 fold
  enhancement of β-Galactosidase-specific IgG2a isotype vs β-Gal alone: 7 fold
[1]
  increase of β-Gal specific IgG1 secretion vs β-Gal alone: no effect
  secretion of IgG2a isotype vs β-Gal alone: no enhanced secretion
[1]; [4]
  IgG1 / IgG2a isotype pattern (Th2 / Th1): dominant Th2 response
[2]; [5]
  toxic side effects (body weight and behaviour): no toxic side effects; also recorded: no toxic side effects or changes in their behaviour

## CCCCCCCC/C=C\CCCCCCCCOCC(COCCCCCCCC/C=C\CCCCCCCC)O[C@@H]1O[C@H](CO)[C@@H](O[C@H]2O[C@H](CO)[C@@H](O)[C@H](O)[C@H]2O)[C@H](O)[C@H]1O (relative stereo) [glycolipid 1, 1,3-Di-O[cis-9-octadecenyl]-2-O-[4′-O-(α-D-glycopyranosyl)-β-D-glycopyranosyl]-sn-glycerol]
[1]; [3]
  IgG1 / IgG2a isotype pattern (Th2 / Th1): dominant Th2 pattern
[1]; i.n.
  enhancement of β-Galactosidase-specific IgG secretion vs β-Gal alone: no effect
  increase of β-Gal-specific IgG1 secretion vs β-Gal alone: no effect
  increase of β-Gal-specific IgG2a secretion vs β-Gal alone: no effect
[1]
  increase of β-Gal specific IgG1 secretion vs β-Gal alone: 2.5 fold
  secretion of IgG2a isotype vs β-Gal alone: no enhanced secretion
[1]; [4]
  IgG1 / IgG2a isotype pattern (Th2 / Th1): dominant Th2 pattern
[2]; mouse, in vivo, sc
  toxic side effects (body weight and behaviour): no toxic side effects; also recorded: no toxic side effects or changes in their behaviour
